Test results published in EP0032048A1, “Pyrroloylpyrrole derivatives, processes for their preparation and their use” (BEECHAM GROUP PLC, priority 1980, dated 1981).

Experiments:
Type in all cases: in vivo
[1] = tested on: phenylquinone induced mouse writhing; experiment: phenylquinone induced mouse writhing test; conditions: po; for inhibition at 16 mg/kg: 16 mg/kg per os
Description: In a conventional phenylquinone induced mouse writhing test, compound 1, 3 and 4 were active at the following dose per os.

[2] = tested on: carageenin induced oedema; experiment: carrageenin induced oedema test in the rat; conditions: for inhibitions (carrageenin oedema) versus controls: dose not given
Description: In a conventional carageenin induced oedema test in the rat, the results were as follows: […]

[3] = tested on: cotton pellet induced granuloma; experiment: cotton pellet induced granuloma test
Description: In a convention cotton pellet induced granuloma test, the results were as follows: I

Cc1cc(CC(=O)O)n(C)c1C(=O)c1cccn1C [Compound 3, 2-Carboxymethyl-1,4-dimethyl-5-(1'-methyl-2'-pyrroloyl) pyrrole]
inhibition at 16 mg/kg [1]: 100%
ED50 ([1]; separate test): 2.8 mg/kg
inhibition at 12.5 mg/kg ([2]; dose 12.5 mg/kg, ** 0.01>p>0.001): 33%
Mean Oedema ([2]; dose 12.5 mg/kg, control 106.0 + 6.01): 70.62 + 6.31
inhibition at 5 mg/kg ([3]; dose 5 mg/kg, ** 0.01>p>0.001): 26%
Granuloma Wt. ([3]; dose 5 mg/kg, control 35.2): 26.1 mg

Cc1cc(CCC(C)O)n(C)c1C(=O)c1cccn1C (stereo not drawn) [Compound 6, 4-(1',4-Dimethyl-5'-(1"-methyl-2"-pyrroloyl)-2'-pyrryl) butan-2-ol]
inhibitions (carrageenin oedema) versus controls [2]: significantly different from controls

Cc1cc(CCC(=O)O)n(C)c1C(=O)c1cccn1C [Compound 4, 2-(2'-Carboxyethyl)-1,4-dimethyl-5-(1"-methyl-2" pyrroloyl) pyrrole]
inhibition at 16 mg/kg [1]: 60%

Cn1cccc1C(=O)c1ccc(CC(=O)O)n1C [Compound 1, 2-Carboxymethyl-1-methyl-5-(1'-methyl-2'-pyrroloyl)pyrrrole]
inhibition at 16 mg/kg [1]: 90%
inhibition at 20 mg/kg ([2]; dose 20 mg/kg, * 0.05>p>0.02): 19%
Mean Oedema ([2]; dose 20 mg/kg, control 145.3 + 10.3): 117.7 + 6.6
inhibition at 10 mg/kg ([3]; dose 10 mg/kg, * 0.05>p>0.02): 22%
Granuloma Wt. ([3]; dose 10 mg/kg, control 48.1): 37.6 mg

CC(=O)CCc1cc(C)c(C(=O)c2cccn2C)n1C [Compound 5, 4-(1',4'-Dimethyl-5'-(1"-methyl-2"-pyrroloyl)-2'-pyrryl) butan-2-one]
inhibitions (carrageenin oedema) versus controls [2]: significantly different from controls

CC(=O)OC(C)CCc1cc(C)c(C(=O)c2cccn2C)n1C (stereo not drawn) [Compound 7, 2-Acetoxy-4-(1',4'-Dimethvl-5'-(1"-methyl-2"-pvrroloyl)-2'-pyrryl)butane]
inhibitions (carrageenin oedema) versus controls [2]: significantly different from controls
